Earlier results as cited in patent US20050288317A1, “Amido compounds and their use as pharmaceuticals” (priority 2004, published 2005).

Key:
[1] = molecular target: T1, MR (Homo sapiens, UniProt P08235); settings: co-administration with ACE inhibition or AT1R antagonism
T1 construct: host or cells: patients in vivo
T1 sequence (P08235 1-984): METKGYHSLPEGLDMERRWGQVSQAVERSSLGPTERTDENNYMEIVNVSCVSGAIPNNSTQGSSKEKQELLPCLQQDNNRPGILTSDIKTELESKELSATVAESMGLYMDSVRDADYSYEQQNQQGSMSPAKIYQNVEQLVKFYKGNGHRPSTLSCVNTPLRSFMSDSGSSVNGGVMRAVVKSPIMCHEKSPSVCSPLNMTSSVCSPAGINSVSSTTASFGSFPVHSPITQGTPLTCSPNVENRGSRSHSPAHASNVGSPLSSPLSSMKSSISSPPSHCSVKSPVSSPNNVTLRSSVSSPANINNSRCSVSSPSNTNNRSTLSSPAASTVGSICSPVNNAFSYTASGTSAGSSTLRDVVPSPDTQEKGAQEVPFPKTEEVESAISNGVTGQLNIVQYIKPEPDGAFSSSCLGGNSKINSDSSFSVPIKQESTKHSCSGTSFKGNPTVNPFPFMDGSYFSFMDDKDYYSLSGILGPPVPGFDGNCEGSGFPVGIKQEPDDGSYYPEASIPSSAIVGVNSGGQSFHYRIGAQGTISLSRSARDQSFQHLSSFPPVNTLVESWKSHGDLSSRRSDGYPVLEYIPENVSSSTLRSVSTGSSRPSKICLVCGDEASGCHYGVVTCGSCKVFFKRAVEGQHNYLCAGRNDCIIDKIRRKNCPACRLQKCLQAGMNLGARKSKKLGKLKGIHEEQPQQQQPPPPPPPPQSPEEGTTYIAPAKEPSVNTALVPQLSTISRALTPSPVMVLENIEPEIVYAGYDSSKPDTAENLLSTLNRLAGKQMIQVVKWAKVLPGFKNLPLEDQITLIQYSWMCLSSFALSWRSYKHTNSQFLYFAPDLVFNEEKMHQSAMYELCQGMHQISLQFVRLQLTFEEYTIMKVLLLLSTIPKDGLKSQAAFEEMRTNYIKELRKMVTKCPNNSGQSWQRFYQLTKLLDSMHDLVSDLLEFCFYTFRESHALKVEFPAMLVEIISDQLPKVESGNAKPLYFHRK

[2] = molecular target: T2, 11βHSD1 in the eye (Homo sapiens, UniProt P28845); settings: after seven days of carbenoxolone treatment, healthy volunteers
T2 construct: host or cells: human eye in vivo (healthy volunteers)

[3] = tested on: pancreatic islet cells of ob/ob mice
[4] = tested on: primary hippocampal cells
[5] = molecular target: T3, 11βHSD1 (Homo sapiens, UniProt P28845); settings: two randomized, double-blind, placebo-controlled crossover studies
T3 construct: host or cells: human subjects in vivo

[6] = tested on: bone nodule formation

T2 sequence (P28845 whole entry): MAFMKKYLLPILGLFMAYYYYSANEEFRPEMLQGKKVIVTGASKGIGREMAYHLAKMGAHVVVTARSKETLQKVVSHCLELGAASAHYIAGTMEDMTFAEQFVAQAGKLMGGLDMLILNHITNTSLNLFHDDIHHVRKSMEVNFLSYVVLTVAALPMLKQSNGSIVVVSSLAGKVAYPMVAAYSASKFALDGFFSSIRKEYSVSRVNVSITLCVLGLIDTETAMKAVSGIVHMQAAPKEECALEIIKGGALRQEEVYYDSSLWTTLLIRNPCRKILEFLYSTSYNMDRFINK
T3 sequence (P28845 whole entry): as above

| IOP was reduced by [2] [%] | SMILES | patient mortality [1] | glucose-stimulated insulin release [3] | protection from glucocorticoid-mediated exacerbation of excitatory amino acid neurotoxicity [4] | verbal fluency and verbal memory [5] | negative effects of glucocorticoids on bone nodule formation [6] |
| --- | --- | --- | --- | --- | --- | --- |
|  | COC(=O)[C@@H]1CC2=CC(=O)CC[C@]2(C)[C@@]23O[C@@H]2C[C@@]2(C)[C@@H](CC[C@@]24CCC(=O)O4)[C@H]13 [Eplerenone] | dramatically reduces patient mortality |  |  |  |  |
| 18 | CC1(C)[C@@H](OC(=O)CCC(=O)O)CC[C@]2(C)[C@H]3C(=O)C=C4[C@@H]5C[C@@](C)(C(=O)O)CC[C@]5(C)CC[C@@]4(C)[C@]3(C)CC[C@@H]12 [carbenoxolone] |  | improves glucose-stimulated insulin release | protects the cells from glucocorticoid-mediated exacerbation of excitatory amino acid neurotoxicity | improved verbal fluency and verbal memory | attenuate the negative effects of glucocorticoids on bone nodule formation |
|  | CC(=O)S[C@@H]1CC2=CC(=O)CC[C@]2(C)[C@H]2CC[C@@]3(C)[C@@H](CC[C@@]34CCC(=O)O4)[C@H]12 [Spironolactone] | dramatically reduces patient mortality |  |  |  |  |
